Test results published in US10987450B2, “Lyophilized moldable implants containing an oxysterol” (Warsaw Orthopedic, Inc., priority 2016, dated 2021).
Entries after “also recorded” stand apart in the source; their conditions may differ.

Legend:
[1] = tested on: C3H10T1/2 embryonic fibroblasts; settings: cited from earlier work
[2] = tested on: M2-10B4 (M2) marrow stromal cells; settings: cited from earlier work
rat spines = assay: rat two-level spine model, implants in the posterolateral space, radiographs and manual palpation; type: in vivo; settings: 4-week and 8-week time points
Method: FIG. 6 illustrates uses of a formulation of malleable implants having 20 mg of Oxy133 on each side of the implant, in accordance with the malleable implants described herein. […] A dry composition of a matrix containing Oxy133, collagen and ceramic as described herein was prepared and wetted with sterile water to be implanted in rat spines as shown in FIG. 6. The wetted matrix was cut in half with a razor blade to yield two halves. The two implants were molded into cylindrical shapes prior to insertion and were positioned bilaterally in the posterolateral space of each test subject. Each implant contained 20 mg Oxy133. Radiographs were taken roughly 10 minutes after the procedure, 4 weeks after the procedure, and 8 weeks after the procedure. […] Fusion was tested at 8-week sacrifice by manual palpation. […] A dry composition of a matrix containing Oxy133, collagen and ceramic as described herein was prepared and wetted with sterile water to be implanted in rat spines as shown in FIG. 6. The wetted matrix was cut in half with a razor blade to yield two halves. The two implants were molded into cylindrical shapes prior to insertion and were positioned bilaterally in the posterolateral space of each test subject. Each implant contained 125 mg Oxy133. Radiographs were taken roughly 10 minutes after the procedure, 4 weeks after the procedure, and 8 weeks after the procedure. […]

[3] = solubility of Oxy133 in water; type: physicochemical
From the text: The Oxy133 can be solubilized in a non-aqueous solvent, such as for example, ethanol and mixed into a solution or suspension. In some embodiments, the Oxy133 can be filtered by passing the Oxy133 and solvent through a filter (e.g., 0.22 microns). This will remove bacteria and other larger-size particulates out of the composition. The Oxy133 used in the composition can be micronized before it is mixed with solvents and other excipients. In various embodiments, the particle size of the Oxy133 can range from about 1 micron to 250 microns. In some embodiments, the Oxy133 can have a particle size of from about 5 microns to about 100 microns or from about 20 to 50 microns. The Oxy133 in the solution or suspension can be added to a slurry of biodegradable polymer and/or the ceramic particles, mixed and, then dried.

Mesenchymal stem cells = assay: osteoblast differentiation of mesenchymal stem cells treated with Oxy133; type: cell-based
From the text: Thus, in some embodiments, a matrix comprising Oxy133 may be implanted into a spinal site with mesenchymal stem cells to induce bone growth through osteoblast differentiation. Periosteum tissue is one tissue type that is involved early during normal bone fracture repair process and can recruit various cell types (e.g., mesenchymal stem cells) and bone growth factors necessary for bone fracture repair. Thus, in some embodiments, periosteum tissue is utilized as a source of mesenchymal stem cells and/or growth factors in a demineralized bone composition.

| Structure (SMILES) | osteogenic differentiation [1] | osteogenic differentiation [2] | bridging bone across the transverse processes of L3-L5 (radiographs) (rat spines; each implant 20 mg Oxy133) | bridging bone across the transverse processes of L3-L5 (radiographs) (rat spines; each implant 125 mg Oxy133) | solubility in water [3] | osteoblast differentiation (Mesenchymal stem cells) |
| --- | --- | --- | --- | --- | --- | --- |
| CC(C)CCC[C@](C)(O)[C@H]1CC[C@H]2[C@@H]3CC=C4C[C@@H](O)CC[C@]4(C)[C@H]3CC[C@@]21C [20(S)-hydroxycholesterol] | induce osteogenic differentiation | induce osteogenic differentiation |  |  |  |  |
| CC(C)CC[C@@H](O)[C@@H](C)[C@H]1CC[C@H]2[C@@H]3CC=C4C[C@@H](O)CC[C@]4(C)[C@H]3CC[C@]12C [22(R)-hydroxycholesterol] | induce osteogenic differentiation | induce osteogenic differentiation |  |  |  |  |
| CC(C)CC[C@H](O)[C@@H](C)[C@H]1CC[C@H]2[C@@H]3CC=C4C[C@@H](O)CC[C@]4(C)[C@H]3CC[C@]12C [22(S)-, 22(S)-hydroxycholesterol] | induce osteogenic differentiation | induce osteogenic differentiation |  |  |  |  |
| CCCCCC[C@](C)(O)[C@H]1CC[C@H]2[C@@H]3C[C@H](O)[C@H]4C[C@@H](O)CC[C@]4(C)[C@H]3CC[C@@]21C [Oxy133, (3S,5S,6S,8R,9S,10R, 13S, 14S,17S) 17-((S)-2-hydroxyoctan-2-yl)-10,13-dimethylhexadecahydro-1H-cyclopenta[a]phenanthrene-3,6-diol] |  |  | Bone growth in rat test subjects can be seen; also recorded: promoted bridging bone | promoted bridging bone; also recorded: Bone growth in rat test subjects can be seen | only slightly soluble or insoluble | increased osteoblast differentiation |
